# Test results taken from patent US20250332167A1, “PHARMACEUTICAL USE OF CDK 4/6 INHIBITOR” (priority 2021, published 2025).
# pIC50: −log10 of the molar value. Values joined by “and” are separate entries in the source; they are usually repeats but may differ in a detail not shown here. Equal entries are not always repeated. “Also recorded” adds a separate entry of the source.
# Legend:
# [1] = test system: NCI-H292; experiment: Proliferation inhibition, non-small cell lung cancer cell line NCI-H292; assay type: cell-based; details: Homo sapiens, NCI-H292, 72 h
# Description: (§1) Sixteen non-small cell lung cancer cell lines, including NCI-H1792, NCI-H1703, NCI-H441, SNU-761, NCI-H1975, NCI-H358, NCI-H1838, NCI-H1915, A549, SK-MES-1, NCI-H292, PC-9, NCI-H460, NCI-H23, NCI-H1581, and HLF, were used for the proliferation inhibition assay of the present invention compound. […] The cell detection equipment used was In Cell Analyzer 2200 (GE Healthcare).
# (§2) With 60 μM as the initial concentration, ten points were obtained by serial five-fold dilution.
# (§3) Each kind of cell in logarithmic growth phase was inoculated with 4000 cells/100 μl/well into a black transparent bottom 96-well plate and cultured overnight at 37° C. The next day, the plate was taken out, and 20 μL of the prepared sample dilutions was added to each well. The plate was then subjected to treatment at 37° C. for 72 hours. After the treatment period of 72 hours, the plate was taken out and 50 μL of neutral formaldehyde fixative (formaldehyde: PBS=1:9, 50 μl/well) was added to each well. The plate was then fixed at room temperature for 10-30 minutes. Subsequently, the wells were washed twice with 1× PBS (100 μl/well) and treated with 0.2% Triton™-X100 for 5-10 minutes to permeabilize the cells. […] The inhibitory rates of each compound at different concentration points were calculated by using the following formula, and IC50 values were obtained through curve fitting using GraphPad Prism 6.0 software.
# [2] = test system: SNU-761; experiment: Proliferation inhibition, non-small cell lung cancer cell line SNU-761; assay type: cell-based; details: Homo sapiens; SNU-761, 72 h
# Description: as §1, §2, §3
# [3] = test system: NCI-H460; experiment: Proliferation inhibition, non-small cell lung cancer cell line NCI-H460; assay type: cell-based; details: Homo sapiens, NCI-H460, 72 h
# Description: as §1, §2, §3
# [4] = test system: NCI-H2228 xenograft; experiment: Human non-small cell lung cancer NCI-H2228 xenograft mouse model; assay type: in vivo, mice
# Excerpt: (§4) The formula for calculating tumor volume was: Tumor Volume (mm^3)=½×(a×b^2) (where “a” represents the long diameter and “b” represents the short diameter).
# (§5) The relative tumor growth rate (T/C) is the percentage value of the relative tumor volume or weight between the treatment group and the control group at a certain time point. The calculation formula is as follows: • T/C(%)=TRTV/CRTV×100% (TRTV: Average RTV of the treatment group; CRTV: Average RTV of the Vehicle group; RTV=Vt/V0, where V0 is the tumor volume of the animal at the time of grouping and Vt is the tumor volume of the animal after treatment).
# (§6) (T and C are the relative tumor volume (RTV) or weight (TW) of the treatment group and control group at a specific time point, respectively).
# Human non-small cell lung cancer cells NCI-H2228 were cultured in RPMI-1640 medium containing 10% fetal bovine serum. Log-phase NCI-H2228 cells were collected, suspended in PBS to an appropriate concentration, and mixed with extracellular matrix gel in a 1:1 ratio for subcutaneous tumor implantation in mice. Twenty female mice were subcutaneously implanted with NCI-H2228 cells on the right side. The cells were suspended in PBS and mixed evenly with matrix gel in a 1:1 ratio (0.1 ml per mouse). When the average tumor volume reached 143 mm^3, the mice were randomly divided into groups based on tumor size. The groups received either the solvent or Compound A from Example 1 (50 mg/kg), administrated by oral intragastric administration once a day for 28 days. Tumor volume and body weight changes were regularly observed. All animals were euthanized on day 50 after cell inoculation. The tumors were weighed and photographed. The calculation methods for tumor volume, relative tumor growth rate (T/C), and tumor growth inhibition rate (TGI) were shown in Example 3.
# [5] = test system: NCI-H441; experiment: Proliferation inhibition, non-small cell lung cancer cell line NCI-H441; assay type: cell-based; details: Homo sapiens, NCI-H441, 72 h
# Description: as §1, §2, §3
# [6] = test system: NCI-H1975 xenograft; experiment: Human non-small cell lung cancer NCI-H1975 xenograft mouse model; assay type: in vivo, Balb/c nude mice; details: for T/C / TGI / Tumor relative volume (x ± S) / Tumor volume (x ± S): 16 days after administration; for Body weight change: Day 20 of treatment
# Excerpt: as §4, §5, §6
# NCI-H1975 cells were cultured in RPMI1640 medium containing 10% fetal bovine serum. Log-phase NCI-H1975 cells were collected, suspended in PBS to an appropriate concentration, and used for subcutaneous tumor implantation in Balb/c nude mice. Each female mouse was implanted with 0.1 ml of NCI-H1975 cells subcutaneously. When the average tumor volume reached 171 mm^3, the mice were randomly divided into groups based on tumor size.
# The positive control drugs were Palbociclib and Abemaciclib.
# Each group consisted of 8 mice, and oral gavage administration was performed once daily for a total of 21 days. Tumor volume and body weight changes were observed regularly, and efficacy evaluation was conducted based on relative tumor proliferation rate (T/C) and relative tumor growth inhibition rate (TGI). The calculation methods for tumor volume, T/C, and TGI are described in Example 3.
# [7] = 50 mg/kg oral once a day for 28 days, day 50 post-implantation
# [8] = 50 mg/kg oral once a day, treatment period
# [9] = 10 mg/kg oral gavage once daily
# [10] = 25 mg/kg oral gavage once daily
# [11] = 50 mg/kg oral gavage once daily
smiles,measurement,setting,value
"CC1=Nc2c(F)cc(-c3nc(Nc4ccc(C5CCN(C)CC5)cn4)ncc3F)cc2C12CCCC2.O=C(O)/C=C/C(=O)O [Compound A, Fumarate salt of 5-fluoro-4-(7′-fluoro-2′-methylspiro[cyclopentane-1,3′-indol]-5′-yl)-N-(5-(1-methylpiperidin-4-yl)pyridin-2-yl)pyrimidine-2-amine]",pIC50,[1],7.14
same,pIC50,[2],8.10
same,pIC50,[3],6.63
same,T/C,[4]; [7],64%
same,TGI,[4]; [7],36%
same,Tumor relative volume (x ± SEM),[4]; [7],3.38 ± 0.23
same,Tumor volume (x ± SEM),[4]; [7],506.53 mm^3
same,Tumor volume (x ± SEM),"[4]; 50 mg/kg oral once a day for 28 days, day 50 post-implantation, listed as CompoundA",506.53 ± 44.73 mm^3
same,Body weight change,[4]; [8],slight weight loss
same,Tolerability / adverse effects,[4]; [8],good tolerability; also recorded: no obvious adverse effects
same,pIC50,[5],8.15
same,T/C,[6]; 5 mg/kg oral gavage once daily,85%
same,TGI,[6]; 5 mg/kg oral gavage once daily,15%
same,Tumor relative volume (x ± S),[6]; 5 mg/kg oral gavage once daily,9.8 ± 0.6
same,Tumor volume (x ± S),[6]; 5 mg/kg oral gavage once daily,1889 mm^3 and 1889 ± 60 mm^3
same,T/C,[6]; [9],72%
same,TGI,[6]; [9],28%
same,Tumor relative volume (x ± S),[6]; [9],8.4 ± 1.0
same,Tumor volume (x ± S),[6]; [9],1647 mm^3 and 1647 ± 243 mm^3
same,T/C,[6]; [10],50%
same,TGI,[6]; [10],50%
same,Tumor relative volume (x ± S),[6]; [10],5.8 ± 0.3
same,Tumor volume (x ± S),[6]; [10],1141 mm^3 and 1141 ± 112 mm^3
same,Body weight change,[6]; [10],slight decrease in body weight
same,T/C,[6]; [11],31%
same,TGI,[6]; [11],69%
same,Tumor relative volume (x ± S),[6]; [11],3.6 ± 0.2
same,Tumor volume (x ± S),[6]; [11],709 mm^3 and 709 ± 47 mm^3
same,Body weight change,[6]; [11],slight decrease in body weight
